Results taken from ChEMBL document CHEMBL5244280, “Evodiamine Lowers Blood Lipids by Up-Regulating the PPARγ/ABCG1 Pathway in High-Fat-Diet-Fed Mice” (J Nat Prod, 2021).

Tested on: HEK293
Experiment: Agonist activity at human PPAR-beta expressed in HEK293 cells co-transfected with luciferase reporter plasmid assessed as receptor transactivation at 10 nM incubated for 18 hrs by luciferase reporter gene assay relative to control
Format: cell-based
Details: filed as agonist

Cc1cc(SCc2sc(-c3ccc(C(F)(F)F)c(F)c3)nc2C)ccc1OCC(=O)O
fold change (FC): 18.3
